In ChEMBL document CHEMBL4138259, “Discovery of JTZ-951: A HIF Prolyl Hydroxylase Inhibitor for the Treatment of Renal Anemia” (ACS Med Chem Lett, 2017):

Experiments:
in vitro = conditions: human, Caco-2
Mus musculus = test: Upregulation of plasma EPO level in Balb/c mouse at 10 mg/kg, po administered as single dose measured after 8 hrs by ELISA; assay type: functional
Rattus norvegicus [1] = test: Toxicity in CD(SD) rat assessed as induction of anorexia at 100 mg/kg, po administered as single dose; assay type: organism-based; conditions: in vivo
Rattus norvegicus [2] = test: Upregulation of plasma EPO level in CD(SD) rat at 10 mg/kg, po administered as single dose measured after 8 hrs by RIA; assay type: functional
[3] = Half life in CD(SD) rat at 0.3 mg/kg, iv; assay type: ADME, organism-based; conditions: in vivo
Egl nine homolog 1 = Egl nine homolog 1 (Homo sapiens, UniProt Q9GZT9); test: Inhibition of PHD2 in human Hep3B cells assessed as increase in EPO release after 24 hrs by ELISA; assay type: cell-based
Cytochrome P450 2C19 = Cytochrome P450 2C19 (Homo sapiens, UniProt P33261); test: Inhibition of CYP2C19 in human liver microsomes by LC-MS/MS analysis; assay type: ADME
Cytochrome P450 2C9 = Cytochrome P450 2C9 (Homo sapiens, UniProt P11712); test: Inhibition of CYP2C9 in human liver microsomes by LC-MS/MS analysis; assay type: ADME
Rattus norvegicus [4] = test: Antianemic activity in po dosed CD(SD) rat assessed as increase in hemoglobin levels administered once daily for 28 days; assay type: functional, organism-based
[5] = biological target: Voltage-gated inwardly rectifying potassium channel KCNH2 (Homo sapiens, UniProt Q12809); test: Inhibition of human ERG expressed in HEK293 cells at holding potential of -80 mV by whole cell patch clamp method; assay type: cell-based
[6] = Cmax in CD(SD) rat at 1 mg/kg, po; assay type: ADME, organism-based; design: dose 1 mg/kg, route oral; conditions: in vivo
Cytochrome P450 1A2 = biological target: T1, Cytochrome P450 1A2 (Homo sapiens, UniProt P05177); test: Inhibition of CYP1A2 in human liver microsomes by LC-MS/MS analysis; assay type: ADME
T1 sequence (P05177 whole entry): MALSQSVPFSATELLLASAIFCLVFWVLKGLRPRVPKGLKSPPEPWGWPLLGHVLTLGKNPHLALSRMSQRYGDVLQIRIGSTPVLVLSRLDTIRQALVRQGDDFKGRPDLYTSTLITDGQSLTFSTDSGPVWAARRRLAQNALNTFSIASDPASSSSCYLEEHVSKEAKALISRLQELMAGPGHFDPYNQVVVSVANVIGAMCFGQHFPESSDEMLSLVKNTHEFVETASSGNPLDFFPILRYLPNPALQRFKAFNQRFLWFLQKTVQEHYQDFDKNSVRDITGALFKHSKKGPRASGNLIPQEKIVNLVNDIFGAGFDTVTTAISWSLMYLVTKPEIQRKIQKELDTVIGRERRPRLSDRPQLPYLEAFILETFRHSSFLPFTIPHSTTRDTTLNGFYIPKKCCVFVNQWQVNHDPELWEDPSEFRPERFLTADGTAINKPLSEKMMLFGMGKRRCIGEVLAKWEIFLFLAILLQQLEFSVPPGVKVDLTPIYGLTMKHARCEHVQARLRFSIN

[7] = Solubility of the compound in FaSSIF after 4 hrs by LC-MS analysis; assay type: physicochemical
Cytochrome P450 2A6 = biological target: T2, Cytochrome P450 2A6 (Homo sapiens, UniProt P11509); test: Inhibition of CYP2A6 in human liver microsomes by LC-MS/MS analysis; assay type: ADME
T2 sequence (P11509 whole entry): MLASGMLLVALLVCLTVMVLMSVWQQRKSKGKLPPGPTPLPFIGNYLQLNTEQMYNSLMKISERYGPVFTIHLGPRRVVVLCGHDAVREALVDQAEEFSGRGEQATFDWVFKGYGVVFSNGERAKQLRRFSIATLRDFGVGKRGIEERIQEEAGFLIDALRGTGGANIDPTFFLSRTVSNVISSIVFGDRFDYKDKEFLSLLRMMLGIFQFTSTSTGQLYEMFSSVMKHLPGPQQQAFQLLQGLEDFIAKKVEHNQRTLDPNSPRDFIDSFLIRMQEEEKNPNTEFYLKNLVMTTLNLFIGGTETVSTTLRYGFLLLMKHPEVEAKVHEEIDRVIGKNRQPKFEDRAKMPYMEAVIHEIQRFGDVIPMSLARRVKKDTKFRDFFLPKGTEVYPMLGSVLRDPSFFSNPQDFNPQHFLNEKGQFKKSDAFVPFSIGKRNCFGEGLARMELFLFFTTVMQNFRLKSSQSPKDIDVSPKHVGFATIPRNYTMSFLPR

[8] = Tmax in CD(SD) rat at 1 mg/kg, po; assay type: ADME, organism-based; conditions: in vivo
[9] = Total clearance in CD(SD) rat at 0.3 mg/kg, iv; assay type: ADME, organism-based; conditions: in vivo
[10] = Oral bioavailability in CD(SD) rat at 1 mg/kg; assay type: ADME, organism-based; conditions: in vivo
[11] = Volume of distribution at steady state in CD(SD) rat at 0.3 mg/kg, iv; assay type: ADME, organism-based; conditions: in vivo, read-out: Vdss
[12] = Metabolic stability in human pooled liver microsomes assessed as compound remaining at 10 uM after 120 mins in presence of NADPH by Radio-HPLC analysis; assay type: ADME, microsome; conditions: read-out: Stability
[13] = Metabolic stability in Beagle dog liver microsomes assessed as compound remaining at 10 uM after 120 mins in presence of NADPH by Radio-HPLC analysis; assay type: ADME, Canis lupus familiaris, microsome; conditions: read-out: Stability
[14] = Metabolic stability in Sprague-Dawley rat liver microsomes assessed as compound remaining at 10 uM after 120 mins in presence of NADPH by Radio-HPLC analysis; assay type: ADME, microsome; conditions: read-out: Stability
Cytochrome P450 2D6 = Cytochrome P450 2D6 (Homo sapiens, UniProt P10635); test: Inhibition of CYP2D6 in human liver microsomes by LC-MS/MS analysis; assay type: ADME
Cytochrome P450 2B6 = biological target: T3, Cytochrome P450 2B6 (Homo sapiens, UniProt P20813); test: Inhibition of CYP2B6 in human liver microsomes by LC-MS/MS analysis; assay type: ADME
T3 sequence (P20813 whole entry): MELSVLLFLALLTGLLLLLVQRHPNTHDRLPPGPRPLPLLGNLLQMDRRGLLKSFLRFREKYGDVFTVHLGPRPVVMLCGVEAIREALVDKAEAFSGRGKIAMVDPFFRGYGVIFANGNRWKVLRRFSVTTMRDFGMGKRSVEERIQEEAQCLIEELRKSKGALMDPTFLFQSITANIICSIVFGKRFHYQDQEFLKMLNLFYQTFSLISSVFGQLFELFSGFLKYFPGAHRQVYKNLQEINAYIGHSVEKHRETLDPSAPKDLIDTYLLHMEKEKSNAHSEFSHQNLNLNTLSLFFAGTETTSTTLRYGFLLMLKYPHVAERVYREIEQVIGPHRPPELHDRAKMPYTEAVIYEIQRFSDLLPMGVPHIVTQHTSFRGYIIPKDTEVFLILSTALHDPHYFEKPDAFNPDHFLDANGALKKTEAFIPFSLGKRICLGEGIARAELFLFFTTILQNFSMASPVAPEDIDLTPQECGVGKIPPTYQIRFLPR

Cytochrome P450 3A4 = Cytochrome P450 3A4 (Homo sapiens, UniProt P08684); test: Inhibition of CYP3A4 in human liver microsomes using midozolam as substrate by LC-MS/MS analysis; assay type: ADME
Cytochrome P450 3A5 = Cytochrome P450 3A5 (Homo sapiens, UniProt P20815); test: Inhibition of CYP3A5 in human liver microsomes using midazolam as substrate by LC-MS/MS analysis; assay type: ADME
[15] = Metabolic stability in cynomolgus monkey liver microsomes assessed as compound remaining at 10 uM after 120 mins in presence of NADPH by Radio-HPLC analysis; assay type: ADME, Macaca fascicularis, microsome; conditions: read-out: Stability
[16] = MRT in CD(SD) rat at 0.3 mg/kg, iv; assay type: ADME, organism-based; conditions: in vivo
Cytochrome P450 2C8 = biological target: T4, Cytochrome P450 2C8 (Homo sapiens, UniProt P10632); test: Inhibition of CYP2C8 in human liver microsomes by LC-MS/MS analysis; assay type: ADME
T4 sequence (P10632 whole entry): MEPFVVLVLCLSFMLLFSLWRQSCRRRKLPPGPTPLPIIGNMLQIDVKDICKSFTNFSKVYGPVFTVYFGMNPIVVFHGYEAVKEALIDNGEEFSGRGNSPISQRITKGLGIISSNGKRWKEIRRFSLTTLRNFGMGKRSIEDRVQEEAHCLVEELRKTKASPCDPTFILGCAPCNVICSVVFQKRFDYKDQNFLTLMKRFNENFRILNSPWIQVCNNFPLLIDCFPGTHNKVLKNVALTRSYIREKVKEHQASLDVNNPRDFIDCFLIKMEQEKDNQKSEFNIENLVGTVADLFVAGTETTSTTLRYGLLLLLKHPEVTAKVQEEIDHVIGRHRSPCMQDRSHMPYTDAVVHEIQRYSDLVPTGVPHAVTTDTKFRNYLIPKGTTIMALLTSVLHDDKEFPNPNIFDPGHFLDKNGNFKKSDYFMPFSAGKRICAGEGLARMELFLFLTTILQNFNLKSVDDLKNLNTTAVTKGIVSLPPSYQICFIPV

[17] = Solubility of the compound in FeSSIF after 4 hrs by LC-MS analysis; assay type: physicochemical

Sequence of Egl nine homolog 1 (Q9GZT9 whole entry): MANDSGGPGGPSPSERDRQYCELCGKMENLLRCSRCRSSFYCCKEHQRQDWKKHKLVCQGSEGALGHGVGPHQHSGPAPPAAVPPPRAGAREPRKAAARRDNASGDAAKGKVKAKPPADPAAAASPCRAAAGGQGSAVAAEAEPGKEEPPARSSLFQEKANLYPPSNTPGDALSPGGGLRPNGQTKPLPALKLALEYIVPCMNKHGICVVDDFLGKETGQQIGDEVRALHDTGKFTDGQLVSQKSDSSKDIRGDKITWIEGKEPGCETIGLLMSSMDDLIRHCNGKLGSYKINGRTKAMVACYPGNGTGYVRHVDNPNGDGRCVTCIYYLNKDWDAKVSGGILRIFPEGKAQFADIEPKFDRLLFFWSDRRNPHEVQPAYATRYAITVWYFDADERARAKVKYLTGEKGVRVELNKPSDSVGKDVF
Sequence of Voltage-gated inwardly rectifying potassium channel KCNH2 (Q12809 whole entry): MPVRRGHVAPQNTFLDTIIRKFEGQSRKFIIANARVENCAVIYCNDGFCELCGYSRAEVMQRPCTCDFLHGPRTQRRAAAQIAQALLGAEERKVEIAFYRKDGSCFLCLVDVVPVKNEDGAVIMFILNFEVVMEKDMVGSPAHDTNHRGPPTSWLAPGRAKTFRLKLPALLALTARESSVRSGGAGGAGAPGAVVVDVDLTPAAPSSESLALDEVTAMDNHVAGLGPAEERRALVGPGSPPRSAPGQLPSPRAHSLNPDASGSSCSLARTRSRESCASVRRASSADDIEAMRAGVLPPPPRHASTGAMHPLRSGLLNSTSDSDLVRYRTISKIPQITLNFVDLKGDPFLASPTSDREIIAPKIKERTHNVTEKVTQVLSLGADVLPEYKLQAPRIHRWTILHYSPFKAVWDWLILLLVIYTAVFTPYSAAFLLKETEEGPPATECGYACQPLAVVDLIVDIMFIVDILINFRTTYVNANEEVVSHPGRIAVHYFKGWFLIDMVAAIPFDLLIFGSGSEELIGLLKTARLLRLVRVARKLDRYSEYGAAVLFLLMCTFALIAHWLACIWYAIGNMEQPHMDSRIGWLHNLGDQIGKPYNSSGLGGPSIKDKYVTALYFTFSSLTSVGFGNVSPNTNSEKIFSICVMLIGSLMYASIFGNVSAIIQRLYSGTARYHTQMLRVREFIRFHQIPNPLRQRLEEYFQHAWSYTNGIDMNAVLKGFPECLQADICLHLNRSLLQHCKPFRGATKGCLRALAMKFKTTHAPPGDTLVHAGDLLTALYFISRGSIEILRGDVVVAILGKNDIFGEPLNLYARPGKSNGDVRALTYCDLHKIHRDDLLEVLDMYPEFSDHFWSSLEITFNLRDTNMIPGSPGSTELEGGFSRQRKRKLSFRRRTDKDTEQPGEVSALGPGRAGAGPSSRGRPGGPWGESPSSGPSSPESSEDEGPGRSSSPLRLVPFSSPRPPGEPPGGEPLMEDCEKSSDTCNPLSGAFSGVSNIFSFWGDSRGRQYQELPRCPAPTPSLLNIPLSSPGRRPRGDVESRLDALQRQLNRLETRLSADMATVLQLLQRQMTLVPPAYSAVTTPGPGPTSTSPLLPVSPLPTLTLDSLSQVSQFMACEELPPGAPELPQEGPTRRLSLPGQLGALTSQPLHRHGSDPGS
Sequence of Cytochrome P450 3A4 (P08684 whole entry): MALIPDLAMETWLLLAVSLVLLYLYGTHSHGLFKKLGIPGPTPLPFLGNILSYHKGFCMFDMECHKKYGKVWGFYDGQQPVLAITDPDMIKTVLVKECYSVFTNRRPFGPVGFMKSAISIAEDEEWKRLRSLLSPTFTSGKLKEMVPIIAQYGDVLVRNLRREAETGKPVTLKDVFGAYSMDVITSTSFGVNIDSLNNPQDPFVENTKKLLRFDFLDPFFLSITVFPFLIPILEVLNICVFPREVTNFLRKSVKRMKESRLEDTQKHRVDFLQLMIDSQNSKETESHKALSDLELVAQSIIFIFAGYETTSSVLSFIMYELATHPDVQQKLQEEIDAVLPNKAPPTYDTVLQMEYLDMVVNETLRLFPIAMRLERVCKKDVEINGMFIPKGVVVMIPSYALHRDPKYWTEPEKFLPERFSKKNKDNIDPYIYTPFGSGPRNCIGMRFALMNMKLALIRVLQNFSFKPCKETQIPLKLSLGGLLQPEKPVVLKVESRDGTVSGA
Sequence of Cytochrome P450 2C9 (P11712 whole entry): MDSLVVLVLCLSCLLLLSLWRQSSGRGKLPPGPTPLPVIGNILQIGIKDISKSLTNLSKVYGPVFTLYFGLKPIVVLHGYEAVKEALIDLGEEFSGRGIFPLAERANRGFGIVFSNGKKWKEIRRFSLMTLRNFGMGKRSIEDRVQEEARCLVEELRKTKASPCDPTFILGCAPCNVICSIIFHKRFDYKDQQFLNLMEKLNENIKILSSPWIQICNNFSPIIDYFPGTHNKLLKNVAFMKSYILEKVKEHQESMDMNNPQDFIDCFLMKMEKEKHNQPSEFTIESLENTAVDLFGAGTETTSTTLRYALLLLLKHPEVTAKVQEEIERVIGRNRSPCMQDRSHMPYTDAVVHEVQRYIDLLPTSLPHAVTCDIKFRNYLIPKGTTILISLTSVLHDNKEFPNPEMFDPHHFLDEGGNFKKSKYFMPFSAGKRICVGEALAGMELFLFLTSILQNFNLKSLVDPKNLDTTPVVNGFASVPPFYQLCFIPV
Sequence of Cytochrome P450 3A5 (P20815 whole entry): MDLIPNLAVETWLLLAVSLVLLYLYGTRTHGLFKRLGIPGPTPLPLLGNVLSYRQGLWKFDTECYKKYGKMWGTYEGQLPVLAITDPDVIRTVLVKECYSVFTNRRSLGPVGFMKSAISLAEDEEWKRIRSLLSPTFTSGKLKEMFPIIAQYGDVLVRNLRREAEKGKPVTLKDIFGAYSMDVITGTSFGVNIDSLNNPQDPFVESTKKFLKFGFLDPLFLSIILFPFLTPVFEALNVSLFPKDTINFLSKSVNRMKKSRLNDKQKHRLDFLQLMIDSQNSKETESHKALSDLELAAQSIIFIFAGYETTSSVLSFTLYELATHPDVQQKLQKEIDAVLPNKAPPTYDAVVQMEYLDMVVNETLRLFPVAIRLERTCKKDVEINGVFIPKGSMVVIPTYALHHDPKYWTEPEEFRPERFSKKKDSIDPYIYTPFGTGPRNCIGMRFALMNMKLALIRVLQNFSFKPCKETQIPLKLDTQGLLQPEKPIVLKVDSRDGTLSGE
Sequence of Cytochrome P450 2C19 (P33261 whole entry): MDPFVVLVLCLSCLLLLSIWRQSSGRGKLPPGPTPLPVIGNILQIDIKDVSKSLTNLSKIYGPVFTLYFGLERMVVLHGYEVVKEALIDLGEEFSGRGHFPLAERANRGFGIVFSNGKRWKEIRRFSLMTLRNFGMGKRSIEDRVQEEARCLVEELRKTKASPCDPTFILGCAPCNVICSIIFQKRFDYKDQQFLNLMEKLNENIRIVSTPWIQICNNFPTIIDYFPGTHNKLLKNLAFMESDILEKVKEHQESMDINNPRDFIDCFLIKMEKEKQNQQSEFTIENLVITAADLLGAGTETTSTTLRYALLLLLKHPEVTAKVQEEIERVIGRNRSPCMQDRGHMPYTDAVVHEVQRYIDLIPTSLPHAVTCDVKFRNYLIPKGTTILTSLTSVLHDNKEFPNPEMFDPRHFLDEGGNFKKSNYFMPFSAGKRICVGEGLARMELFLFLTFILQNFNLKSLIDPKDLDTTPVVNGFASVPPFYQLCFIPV
Sequence of Cytochrome P450 2D6 (P10635 whole entry): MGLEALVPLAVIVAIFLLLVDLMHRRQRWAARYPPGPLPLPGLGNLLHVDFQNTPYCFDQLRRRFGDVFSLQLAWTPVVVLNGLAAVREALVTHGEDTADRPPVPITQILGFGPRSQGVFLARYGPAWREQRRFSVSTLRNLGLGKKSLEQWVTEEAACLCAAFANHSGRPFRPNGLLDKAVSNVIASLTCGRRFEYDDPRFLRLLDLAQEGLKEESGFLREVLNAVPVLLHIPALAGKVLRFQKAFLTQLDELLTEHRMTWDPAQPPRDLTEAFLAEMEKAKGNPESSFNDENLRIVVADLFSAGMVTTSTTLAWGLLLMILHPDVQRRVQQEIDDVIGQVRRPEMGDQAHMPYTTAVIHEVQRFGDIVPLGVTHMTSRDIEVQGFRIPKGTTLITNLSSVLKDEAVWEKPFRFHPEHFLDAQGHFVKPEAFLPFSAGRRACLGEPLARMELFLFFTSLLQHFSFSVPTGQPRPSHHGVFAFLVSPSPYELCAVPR

## Cl.O=C(O)CNC(=O)c1c(O)ccc2ncnn12
In vitro
  Papp A→B at 2 h, 25 µM: 4 nm/s

## Cl.O=C(O)CNC(=O)c1c(O)cc(CCc2ccccc2)c2ncnn12
In vitro
  Papp A→B at 2 h, 25 µM: 93 nm/s
Mus musculus
  Activity: <320 pg/mL

## Cl.O=C(O)CNC(=O)c1c(O)cc(C2CCCCC2)c2ncnn12
In vitro
  Papp A→B at 2 h, 25 µM: 180 nm/s
Mus musculus
  Activity: <450 pg/mL

## O=C(O)CNC(=O)c1c(O)cc(-c2cccc(Cl)c2)n2ncnc12
Rattus norvegicus [1]
  Activity: Toxic
In vitro
  Papp A→B at 2 h, 25 µM: 61 nm/s
Rattus norvegicus [2]
  Activity: 7900 pg/mL
Mus musculus
  Activity: >15000 pg/mL

## CCCCCc1cn2ncnc2c(C(=O)NCC(=O)O)c1O.Cl
In vitro
  Papp A→B at 2 h, 25 µM: 150 nm/s
Mus musculus
  Activity: <330 pg/mL

## O=C(O)CNC(=O)c1nc(Cl)c2ccccc2c1O
In vitro
  Papp A→B at 2 h, 25 µM: 630 nm/s

## Cl.O=C(O)CNC(=O)c1c(O)cc(CCc2ccc(F)cc2)n2ncnc12
In vitro
  Papp A→B at 2 h, 25 µM: 120 nm/s
Mus musculus
  Activity: 1000 pg/mL

## O=C(O)CNC(=O)c1c(O)cc(-c2cccc(Cl)c2)c2ncnn12
In vitro
  Papp A→B at 2 h, 25 µM: 150 nm/s
Mus musculus
  Activity: <265 pg/mL

## Cl.O=C(O)CNC(=O)c1c(O)cc(CCc2ccccc2)n2ncnc12
Rattus norvegicus [1]
  Activity: Non-Toxic
[3]
  half-life: 1.4 h
Egl nine homolog 1
  EC50: 5.7 µM
Cytochrome P450 2C19
  IC50: > 100 µM
Cytochrome P450 2C9
  IC50: > 100 µM
Rattus norvegicus [4]
  Activity: Dose-dependent effect
[5]
  IC50: > 100 µM
[6]
  Cmax: 2.7 µg/mL
Cytochrome P450 1A2
  IC50: > 100 µM
In vitro
  Papp A→B at 2 h, 25 µM: 130 nm/s
[7]
  solubility at 4 h: > 2900 µM
Cytochrome P450 2A6
  IC50: > 100 µM
[8]
  Tmax: 0.33 h
Rattus norvegicus [2]
  Activity: 17000 pg/mL
[9]
  clearance: 0.162 L/h/kg
[10]
  bioavailability: 75%
[11]
  Vd: 0.28 L/kg
[12]
  remaining at 2 h, 10 µM: 94%
[13]
  remaining at 2 h, 10 µM: 100%
[14]
  remaining at 2 h, 10 µM: 98%
Cytochrome P450 2D6
  IC50: > 100 µM
Cytochrome P450 2B6
  IC50: > 100 µM
Cytochrome P450 3A4
  IC50: > 100 µM
Cytochrome P450 3A5
  IC50: > 100 µM
Mus musculus
  Activity: 6500 pg/mL
[15]
  remaining at 2 h, 10 µM: 94%
[16]
  MRT: 1.8 h
Cytochrome P450 2C8
  IC50: > 100 µM
[17]
  solubility at 4 h: 1300 µM

## Cl.O=C(O)CNC(=O)c1c(O)cc(-c2ccccc2)n2ncnc12
In vitro
  Papp A→B at 2 h, 25 µM: 25 nm/s
Mus musculus
  Activity: <320 pg/mL
